Results: article PMC9112550, “Optimization of the antimicrobial peptide Bac7 by deep mutational scanning” (BMC Biology, 2022)
Where no end group is shown, it is not given here.

Legend:
[1] = tested on: E. coli ATCC 25922; assay: In vivo efficacy, murine septicemia model; settings: 10 CD-1 mice, up to 3 days
Description: CD-1 mice (7 weeks old, 27–28 g female) were used (Charles River, France). These animals were housed for a week of acclimation period before the experiment in a protected area in the ‘Centre de Zootechnie de l’Université de Bourgogne’ (Biosafety level 2 facility) and fed ad libitum according to the current recommendations by the European Institute of Health. Housing took place in rooms where a 12-h/12 h light/dark cycle is applied, the temperature ranges from 18 to 21°C and the relative humidity from 45 to 65%. The animal facility is authorized by the French authorities (Agreement N° C 21 464 04 EA). […]
For animal experiments, Bac7PS was synthesized at Genscript as acetate salt and with a purity of 92%. […] First, the maximum tolerated dose (MTD) for the peptide was determined by testing different peptide doses in 8 groups with 5 animals per group. The peptide solution was administered once by intraperitoneal (IP) injection with a volume of between 94 and 240 μl (depending on the weight of the animal and the dosage) and the animals were monitored for 2 h following the injection, then 6 to 8 h later, and then once or twice a day, depending on the clinical status, up to 5 days post-injection. […] As endpoint, the wellbeing and survival rate, on a twice daily based evaluation for up to 3 days, was monitored.

[2] = tested on: HEK 293 ribosomes; assay: In vitro translation inhibition assay, HEK 293 S30 extract; format: biochemical, human; settings: firefly luciferase mRNA, 800 to 0.08 μM, 1 h, 37°C, n = 9, p<10^−5, Wilcoxon
Description: To measure inhibition of the HEK 293 ribosome, an S30 extract was prepared from HEK 293-F cells. Suspension cultures of HEK 293-F cells (Gibco, Thermo Fisher) were maintained in 293 SFM II medium (Thermo Fisher) supplemented with 4 mM of L-glutamine according to the manufacturer’s instructions. Cells in the logarithmic phase were harvested by centrifugation for 18 min at 200 × g at 4°C. The cell pellet was washed twice with ice-cold PBS and pelleted again for 5 min at 200 × g at 4°C. Subsequently, cells were washed twice with ice-cold washing buffer (35 mM HEPES-KOH buffer pH 7.4, 146 mM NaCl, 11 mM D-(+)-glucose) and centrifuged for 5 min at 200 × g and 4°C. Cells were then resuspended in twice the volume of hypotonic buffer (20 mM HEPES-KOH buffer pH7.4, 10 mM KCl, 1.5 mM magnesium acetate, 1 mM DTT) and incubated for 10 min on ice. Cells were disrupted using a glass Dounce tissue homogenizer (Kimble, DWK Life Sciences, Mainz, Germany). After disruption, 0.1 volume of 10fold buffer (200 mM HEPES-KOH buffer pH 7.4, 1.2 M potassium acetate, 40 mM magnesium acetate, 50 mM DTT) of the total amount of hypotonic buffer was added. Cell debris was pelleted by centrifuging the lysate for 10 min at 700 × g at 4°C. The supernatant was then centrifuged for 15 min at 30,000 × g at 4°C.
(BIO-TEK FLx80, Witec AG, Littau, CH). […] Y=Bottom + (Top-Bottom)/(1+10^((X-LogIC50)))”.

[3] = tested on: E. coli TOP10; assay: Deep mutational scanning, site-saturation Bac7_1-23 library, intracellular self-screening with NGS; format: cell-based; settings: intracellular expression
Description: A focused strategy was pursued to generate diversity at positions 5, 18, 19, and 20 in the Bac7_1-23 peptide. […] Degeneration was introduced by using the QuikChange technique, amplifying the pBAD plasmid containing the Bac7_1-23 gene using a mixture of 20 oligonucleotides (Additional file 1: Table S1) at a final concentration of 0.3 μM and Phusion® High-Fidelity PCR Master Mix in HF buffer. The amplification was performed using 20 cycles of 98°C for 10 s, 60°C for 15 s, and 72°C for 10 s. The PCR product was treated with the enzyme Dpn1 to remove the template plasmid and subsequently purified. The purified product was used to transform 20 μl of CloneCatcher™ Gold DH5G Electrocompetent E. coli (Genlantis, Burlington, USA) cells using electroporation.
To assess the antimicrobial activity of multiple peptides in parallel when expressed intracellularly in E. coli TOP10, previously prepared aliquots containing E. coli plasmid libraries created by either random mutagenesis or site-saturation mutagenesis were used. For both approaches, three aliquots containing approximately 500 million cells each of E. coli TOP10 harboring peptide-encoding DNA sequences on the pBAD plasmid were thawed and added to three 1-l baffled shake flasks containing 100 ml of LB medium + 100 μg ml^−1 carbenicillin. The cultures were grown for roughly 7 h at 37°C.

## RRIRIRPPRLPRPRPRPYFMPRP [Bac7PS]
[1]; 10 mg kg^−1 IP twice (1 and 4 h post-infection)
  survival: 60%
[1]; 30 mg kg^−1 IP twice (1 and 4 h post-infection)
  survival: 80%
[2]
  mean increase in ribosomal binding (translation inhibition IC50), HEK 293 ribosomes, compared to Bac7_1-23: 38%
[3]
  antimicrobial activity in the library: the most active
